What all share (type): physicochemical
A short description of data set [1]: Bulk density, tap density and Carr index (flowability and compressibility). Conditions: for Carr index: (ρ1−ρ0)/ρ1; for Tapped density: tapped 200 times. How it is done:
Bulk density was determined by adding appropriate amount (m) of material into a 5 mL graduate cylinder and recording its apparent volume (v0). The bulk density was obtained by dividing the amount of material by its apparent volume of the unsettled material (ρ0=m/v0). For tap density, the cylinder was then tapped for 200 times. The tap density was then calculated by dividing the amount of material by its final tapped volume (ρ1=m/v1). Carr index=(ρ1−ρ0)/ρ1.
(§1) The results of amorphous freebase, Freebase Type F, Fumarate Type B and Fumarate Type E for flowability and compressibility were summarized in Table 30. Generally, powders with smaller Karl index would show better compressibility and flowability. And powders with smaller angle of repose would show better flowability.

The nature of data set [2]: Angle of repose (flowability).
From the text: Form the angle of repose on a fixed base with a retaining lip to retain a layer of powder on the base. Carefully build up a symmetrical cone of powder. Determine the angle of repose by measuring the height (h) and base radius (r) of the cone of powder and calculating the angle of repose a from the following equation α=tan^−1(h/r).
as §1

Data set [3] can be described thus: Solid state stability, 40° C./75% RH/open for 1 month (XRPD, HPLC purity). How it is done:
(§2) An Agilent 1260 HPLC instrument was utilized and detailed chromatographic conditions for purity and solubility analysis were listed in Table 6.
To evaluate the solid state stability of the selected forms (amorphous freebase, Freebase Type F, Fumarate Type A and Fumarate Type B) samples were stored under 40° C./75% RH/open for 1 month. Stability samples were characterized by XRPD to check any solid form change and by HPLC to check purity change.

The nature of data set [4]: TGA and DSC/mDSC thermal analysis (characterization of forms). On the procedure: In salt screening and evaluation and in polymorph study, TGA was performed using a TA Q500, TA Q5000 or Discovery 5500 TGA from TA Instruments. DSC or mDSC was performed using a TA Q200/Q2000 or Discovery 2500 DSC from TA Instruments.
Data set [5] in a line: Kinetic solubility in FaSSIF. Conditions: 37° C. How it is done: as §2
Kinetic solubility of amorphous freebase and Fumarate Type B/E was measured in FaSSIF to evaluate the solubility. […] After centrifugation, supernatants were collected for HPLC tests.

The nature of data set [6]: Equilibrium solubility in H2O. The conditions noted are these: 37° C., stirred 24 hours. On the procedure: as §2
About 5˜10 mg of solids were suspended in H2O to get a mixture. The suspensions were stirred for 24 hours, followed by centrifugation and filtration to obtain supernatants for HPLC test.

Data set [7] is described as follows: Equilibrium solubility in pH 4.5 buffer. Conditions: 37° C., stirred 24 hours. How it is done: as §2
About 5˜10 mg of solids were suspended in pH 4.5 buffer to get a mixture. The suspensions were stirred for 24 hours, followed by centrifugation and filtration to obtain supernatants for HPLC test.

Data set [8] can be described thus: Equilibrium solubility in pH 6.8 buffer. The conditions noted are these: 37° C., stirred 24 hours. On the procedure:
as §2
About 5˜10 mg of solids were suspended in pH 6.8 buffer to get a mixture. The suspensions were stirred for 24 hours, followed by centrifugation and filtration to obtain supernatants for HPLC test.

A further data set is described as follows: Hygroscopicity by DVS. The conditions noted are these: 80% RH, 25° C. On the procedure:
DVS is measured via a SMS (Surface Measurement Systems) DVS Intrinsic. The relative humidity at 25° C. is calibrated against deliquescence point of LiCl, Mg(NO3)2 and KCl.
DVS isotherm plot was collected at 25° C. to investigate the selected solid forms stability as a function of humidity. Compared with amorphous freebase, the hygroscopicity of Freebase Type B, Fumarate Type A, Fumarate Type B and Fumarate Type E was lower under 80% RH/25° C.

Data set [9] can be described thus: Mechanical stability (XRPD form change after grinding and tableting). How it is done:
Mechanical stability of the solid forms was evaluated by monitoring the XRPD form change after grinding (˜5 min) and tableting (˜234 Mpa).

Where [10] appears, read: crystalline salts, listed as HCl salt Type A.
[11] abbreviates: crystalline salts, listed as HCl salt Type B.

13 molecules from US20240417403A1, “CRYSTALLINE FORMS OF QUINAZOLINE DERIVATIVES, PREPARATION, COMPOSITION AND USE THEREOF” (Hoffmann-La Roche Inc., priority 2021, published 2024) can be followed below.

SMILES strings stand for the structures. Structures can show the parent of a compound that is named as a salt.

Turning to `COc1ccc2ncnc(Nc3ccc(Oc4cc5ncnn5cn4)c(C)c3)c2c1O[C@@H]1CCN(C)CC1(F)F` [Freebase Type F, (R)-N-(4-([1,2,4]triazolo[1,5-c]pyrimidin-7-yloxy)-3-methylphenyl)-5-((3,3-difluoro-1-methylpiperidin-4-yl)oxy)-6-methoxyquinazolin-4-amine], in [1], the Bulk density was 0.19 g/mL, the Carr index worked out at 31.9% and the Tapped density is 0.28 g/mL. The molecule also returned an Angle of repose in data set [2] of 35.8°. Further, the “Purity/Initial by HPLC area %” value in data set [3] (40° C., 75% RH, open) was determined as 100.3%. Further, the “Form Change” value in data set [3] (40° C., 75% RH, open, by XRPD) was “No”. In addition, the “Purity change by HPLC (chemical stability) compared with amorphous freebase” value in data set [3] (40° C./75% RH) is reported as “lower purity change”. In addition, the “Solid form change by XRPD (physical stability)” value in [3] (40° C./75% RH/open) is recorded as “no form change”. For the same molecule, the “TGA weight loss (%, temp.)” value in data set [4] (free base forms, to 70° C.) was 5.7 (to 70° C.) %.
Regarding `COc1ccc2ncnc(Nc3ccc(Oc4cc5ncnn5cn4)c(C)c3)c2c1O[C@@H]1CCN(C)CC1(F)F` [Freebase Type G, (R)-N-(4-([1,2,4]triazolo[1,5-c]pyrimidin-7-yloxy)-3-methylphenyl)-5-((3,3-difluoro-1-methylpiperidin-4-yl)oxy)-6-methoxyquinazolin-4-amine], the “TGA weight loss (%, temp.)” value in [4] (free base forms, to 70° C.) was 7.3 (to 70° C.) %.
For `COc1ccc2ncnc(Nc3ccc(Oc4cc5ncnn5cn4)c(C)c3)c2c1O[C@@H]1CCN(C)CC1(F)F` [HCl Salt Type A, (R)-N-(4-([1,2,4]triazolo[1,5-c]pyrimidin-7-yloxy)-3-methylphenyl)-5-((3,3-difluoro-1-methylpiperidin-4-yl)oxy)-6-methoxyquinazolin-4-amine], in data set [4] (setting [10]), the “TGA weight loss (150° C., %)” value came out at 8.8% and the “DSC endotherm (° C., peak)” value stood at 110.0 °C.
As to `COc1ccc2ncnc(Nc3ccc(Oc4cc5ncnn5cn4)c(C)c3)c2c1O[C@@H]1CCN(C)CC1(F)F` [Freebase Type A, (R)-N-(4-([1,2,4]triazolo[1,5-c]pyrimidin-7-yloxy)-3-methylphenyl)-5-((3,3-difluoro-1-methylpiperidin-4-yl)oxy)-6-methoxyquinazolin-4-amine], the “DSC endotherm (° C., peak)” value in data set [4] (free base forms) amounted to 71.3 °C. Moreover, in data set [4] (free base forms, to 140° C.), the “TGA weight loss (%, temp.)” value was 9.9 (to 140° C.) %.
As to `COc1ccc2ncnc(Nc3ccc(Oc4cc5ncnn5cn4)c(C)c3)c2c1O[C@@H]1CCN(C)CC1(F)F` [Mesylate Type A, (R)-N-(4-([1,2,4]triazolo[1,5-c]pyrimidin-7-yloxy)-3-methylphenyl)-5-((3,3-difluoro-1-methylpiperidin-4-yl)oxy)-6-methoxyquinazolin-4-amine], in [4] (crystalline salts), the “TGA weight loss (150° C., %)” value is listed as 10.2% and the “DSC endotherm (° C., peak)” value was found to be 65.1 °C.
As to `COc1ccc2ncnc(Nc3ccc(Oc4cc5ncnn5cn4)c(C)c3)c2c1O[C@@H]1CCN(C)CC1(F)F` [Mesylate Type B, (R)-N-(4-([1,2,4]triazolo[1,5-c]pyrimidin-7-yloxy)-3-methylphenyl)-5-((3,3-difluoro-1-methylpiperidin-4-yl)oxy)-6-methoxyquinazolin-4-amine], in [4] (crystalline salts), the “TGA weight loss (150° C., %)” value is 7.6% and the “DSC endotherm (° C., peak)” value came out at 63.4 °C.
Regarding `COc1ccc2ncnc(Nc3ccc(Oc4cc5ncnn5cn4)c(C)c3)c2c1O[C@@H]1CCN(C)CC1(F)F` [Freebase Type C, (R)-N-(4-([1,2,4]triazolo[1,5-c]pyrimidin-7-yloxy)-3-methylphenyl)-5-((3,3-difluoro-1-methylpiperidin-4-yl)oxy)-6-methoxyquinazolin-4-amine], the “TGA weight loss (%, temp.)” value in data set [4] (free base forms, to 150° C.) was 1.5 (to 150° C.) %.
For `COc1ccc2ncnc(Nc3ccc(Oc4cc5ncnn5cn4)c(C)c3)c2c1O[C@@H]1CCN(C)CC1(F)F` [Amorphous Fumarate, (R)-N-(4-([1,2,4]triazolo[1,5-c]pyrimidin-7-yloxy)-3-methylphenyl)-5-((3,3-difluoro-1-methylpiperidin-4-yl)oxy)-6-methoxyquinazolin-4-amine], the “TGA weight loss (%, temp.)” value in data set [4] (fumarate forms, to 150° C.) is 3.6 (to 150° C.) %.
As for `COc1ccc2ncnc(Nc3ccc(Oc4cc5ncnn5cn4)c(C)c3)c2c1O[C@@H]1CCN(C)CC1(F)F` [HCl Salt Type B, (R)-N-(4-([1,2,4]triazolo[1,5-c]pyrimidin-7-yloxy)-3-methylphenyl)-5-((3,3-difluoro-1-methylpiperidin-4-yl)oxy)-6-methoxyquinazolin-4-amine], in data set [4] (setting [11]), the “TGA weight loss (150° C., %)” value amounted to 2.3% and the “DSC endotherm (° C., peak)” value came out at 241.7 °C.
For `COc1ccc2ncnc(Nc3ccc(Oc4cc5ncnn5cn4)c(C)c3)c2c1O[C@@H]1CCN(C)CC1(F)F` [Adipate Type A, (R)-N-(4-([1,2,4]triazolo[1,5-c]pyrimidin-7-yloxy)-3-methylphenyl)-5-((3,3-difluoro-1-methylpiperidin-4-yl)oxy)-6-methoxyquinazolin-4-amine], in [4] (crystalline salts), the “TGA weight loss (150° C., %)” value is on record as 3.0% and the “DSC endotherm (° C., peak)” value stood at 106.7 °C.
Turning to `COc1ccc2ncnc(Nc3ccc(Oc4cc5ncnn5cn4)c(C)c3)c2c1O[C@@H]1CCN(C)CC1(F)F` [Phosphate Type A, (R)-N-(4-([1,2,4]triazolo[1,5-c]pyrimidin-7-yloxy)-3-methylphenyl)-5-((3,3-difluoro-1-methylpiperidin-4-yl)oxy)-6-methoxyquinazolin-4-amine], in data set [4] (crystalline salts), the “TGA weight loss (150° C., %)” value was determined as 9.5%.
Regarding `COc1ccc2ncnc(Nc3ccc(Oc4cc5ncnn5cn4)c(C)c3)c2c1O[C@@H]1CCN(C)CC1(F)F` [Fumarate Type E, (R)-N-(4-([1,2,4]triazolo[1,5-c]pyrimidin-7-yloxy)-3-methylphenyl)-5-((3,3-difluoro-1-methylpiperidin-4-yl)oxy)-6-methoxyquinazolin-4-amine], the “Solubility in FaSSIF” value in data set [5] (timepoint 1 h), in data set [5] (timepoint 2 h) and in [5] (timepoint 24 h) was no less than 0.36 mg/mL throughout. For the same molecule, the “Solubility in H2O” value in data set [6] was no less than 5.0 mg/mL. Besides, the “Solubility in pH 4.5 buffer” value in data set [7] was found to be 1.3 mg/mL. Further, in data set [8], the “Solubility in pH 6.8 buffer” value amounted to 0.92 mg/mL. In addition, the Bulk density in [1] turned out to be 0.30 g/mL. The molecule further returned a Carr index in data set [1] of 41.7%. Also, in data set [1], the Tapped density came to 0.51 g/mL. In addition, the Angle of repose in [2] turned out to be 38.3°. Also, in “Hygroscopicity by DVS”, the “Weight change at 80% RH/25° C. by DVS” value is 2.1%. Besides, in data set [9] (grinding ~5 min), the “XRPD form change after grinding” value was “No”. Besides, the “XRPD form change after tableting” value in data set [9] (tableting ~234 Mpa) is reported as “No”. The “TGA weight loss (150° C., %)” value in data set [4] (crystalline salts) is given as 9.4%. For the same molecule, the “TGA weight loss (%, temp.)” value in data set [4] (fumarate forms, to 150° C.) was 9.4 (to 150° C.) %.
For `COc1ccc2ncnc(Nc3ccc(Oc4cc5ncnn5cn4)c(C)c3)c2c1O[C@@H]1CCN(C)CC1(F)F` [L-tartrate Type A, (R)-N-(4-([1,2,4]triazolo[1,5-c]pyrimidin-7-yloxy)-3-methylphenyl)-5-((3,3-difluoro-1-methylpiperidin-4-yl)oxy)-6-methoxyquinazolin-4-amine], the “TGA weight loss (150° C., %)” value in [4] (crystalline salts) came to 3.7%.
